Results from patent US20240343740A1, “MACROCYCLIC GLUCAGON-LIKE PEPTIDE 1 RECEPTOR AGONISTS” (Eli Lilly and Company, priority 2021, published 2024).

Legend:
human GLP-1R [1] = target: T1, human GLP-1R (Homo sapiens, UniProt P43220); experiment: Human GLP-1 Receptor HEK293 cell cAMP assay, 581 fmol/mg GLP-1R expression density; type: cell-based; parameters: expressed in transfected cells; host or cells: HEK293 clonal cell line; settings: HEK293 cell line with 581 fmol/mg expression density of GLP-1R; for EC50: geometric mean, read-out: EC50 nM (SEM, n), intracellular cAMP response, relative EC50; for Emax: percent of maximal response to GLP-1(7-36)NH2, arithmetic mean, read-out: Emax % (SEM, n), intracellular cAMP response
T1 sequence (P43220 24-463): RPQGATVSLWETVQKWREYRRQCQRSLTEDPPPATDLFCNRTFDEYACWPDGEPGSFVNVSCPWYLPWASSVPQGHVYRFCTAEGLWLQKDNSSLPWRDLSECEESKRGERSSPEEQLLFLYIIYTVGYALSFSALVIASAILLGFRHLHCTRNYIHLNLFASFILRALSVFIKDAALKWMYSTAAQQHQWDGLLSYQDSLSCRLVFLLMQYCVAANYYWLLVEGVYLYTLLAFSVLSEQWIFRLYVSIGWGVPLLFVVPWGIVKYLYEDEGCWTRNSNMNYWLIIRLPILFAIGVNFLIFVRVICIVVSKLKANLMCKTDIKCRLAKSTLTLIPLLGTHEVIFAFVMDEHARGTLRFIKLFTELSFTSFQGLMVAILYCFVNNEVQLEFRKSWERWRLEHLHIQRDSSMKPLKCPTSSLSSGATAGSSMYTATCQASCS
Protocol: (§1) Human GLP-1 Receptor HEK293 Cell cAMP Assay
(§2) GLP-1 Receptor functional activity is determined using cAMP formation in an HEK293 clonal cell line expressing human GLP-1R (NCBI accession number NP_002053) at an expression density of 581±94 (n=6) and 104±12 (n=5) fmol/mg protein (determined using [^125I]GLP-1(7-36)NH2 homologous competition binding analysis). The hGLP-1R receptor expressing cells are treated with compound (20 point concentration-response curve in DMSO, 2.75-fold Labcyte Echo direct dilution, 384 well plate Corning Cat #3570) in DMEM (Gibco Cat #31053) supplemented with 1× GlutaMAX™ (Gibco Cat #35050), 0.1% bovine casein (Sigma C4765-10ML), 250 μM IBMX (3-Isobutyl-1-methylxanthine, Acros Cat #228420010) and 20 mM HEPES (Gibco Cat #15630) in a 20 μL assay volume (final DMSO concentration is 0.5%). After a 30 min incubation at 37° C., the resulting increase in intracellular cAMP is quantitatively determined using the CisBio cAMP Dynamic 2 HTRF Assay Kit (62AM4PEJ). Briefly, cAMP levels within the cell are detected by adding the cAMP-d2 conjugate in cell lysis buffer (10 μL) followed by the antibody anti-cAMP-Eu^3+-Cryptate, also in cell lysis buffer (10 μL). The resulting competitive assay is incubated for at least 60 min at RT, then detected using a PerkinElmer Envision® instrument with excitation at 320 nm and emission at 665 nm and 620 nm. Envision units (emission at 665 nm/620 nm*10,000) are inversely proportional to the amount of cAMP present and are converted to nM cAMP per well using a cAMP standard curve. The amount of cAMP generated (nM) in each well is converted to a percent of the maximal response observed with human GLP-1(7-36)NH2. A relative EC50 value and percent top (Emax) are derived by non-linear regression analysis using the percent maximal response vs. the concentration of compound added, fitted to a four-parameter logistic equation.

human GLP-1R [2] = target: T1, human GLP-1R; experiment: Human GLP-1 Receptor HEK293 cell cAMP assay, 104 fmol/mg GLP-1R expression density; type: cell-based; parameters: expressed in transfected cells; host or cells: HEK293 clonal cell line; settings: HEK293 cell line with 104 fmol/mg expression density of GLP-1R; for EC50: geometric mean, read-out: EC50 nM (SEM, n), intracellular cAMP response, relative EC50; for Emax: percent of maximal response to GLP-1(7-36)NH2, arithmetic mean, read-out: Emax % (SEM, n), intracellular cAMP response
Protocol: as §1, §2

Compound	EC50 (human GLP-1R [1]) [nM]	Emax (human GLP-1R [1]) [%]	EC50 (human GLP-1R [2]) [nM]	Emax (human GLP-1R [2]) [%]
N#Cc1ccc2c(c1)CCCOc1cc(ccc1Cc1nc3ccc(C(=O)O)cc3n1C[C@@H]1CCO1)-c1cccc(n1)OC2 [Example 4, (S)-2-((5^4-Cyano-3,9-dioxa-2(2,6)-pyridina-1(1,3),5(1,2)-dibenzenacyclononaphane-1^4-yl)methyl)-1-(oxetan-2-ylmethyl)-1H-benzo[d]imidazole-6-carboxylic acid]	90.6	99.2	384	78.7
N#Cc1ccc2c(c1)CCCOc1cc(ccc1Cc1nc3ccc(C(=O)O)nc3n1C[C@@H]1CCO1)-c1cccc(n1)OC2 [Example 6, (S)-2-((5^4-Cyano-3,9-dioxa-2(2,6)-pyridina-1(1,3),5(1,2)-dibenzenacyclononaphane-1^4-yl)methyl)-3-(oxetan-2-ylmethyl)-3H-imidazo[4,5-b]pyridine-5-carboxylic acid]	166	97.2	1020	89.1
N#Cc1ccc2c(c1)CCCOc1cc(ccc1Cc1nc3c(F)cc(C(=O)O)cc3n1C[C@@H]1CCO1)-c1cccc(n1)OC2 [Example 7, (S)-2-((5^4-cyano-3,9-dioxa-2(2,6)-pyridina-1(1,3),5(1,2)-dibenzenacyclononaphane-1^4-yl)methyl)-4-fluoro-1-(oxetan-2-ylmethyl)-1H-benzo[d]imidazole-6-carboxylic acid]	20.1	104	96.8	92.9
N#Cc1ccc2c(c1)CCCOc1cc(c(F)cc1Cc1nc3ccc(C(=O)O)cc3n1C[C@@H]1CCO1)-c1cccc(n1)NC2 [Example 8, (S)-2-((5^4-Cyano-1^6-fluoro-9-oxa-3-aza-2(2,6)-pyridina-1(1,3),5(1,2)-dibenzenacyclononaphane-1^4-yl)methyl)-1-(oxetan-2-ylmethyl)-1H-benzo[d]imidazole-6-carboxylic acid]	168	90.5	815	81.5
N#Cc1ccc2cc1CCCOc1cc(c(F)cc1Cc1nc3ccc(C(=O)O)cc3n1C[C@@H]1CCO1)-c1cccc(n1)OC2 [Example 10, (S)-2-((5^4-Cyano-1^6-fluoro-3,9-dioxa-2(2,6)-pyridina-1,5(1,3)-dibenzenacyclononaphane-1^4-yl)methyl)-1-(oxetan-2-ylmethyl)-1H-benzo[d]imidazole-6-carboxylic acid]	35.3	107	147	88.9
CCn1cncc1Cn1c(Cc2ccc3cc2OCCCc2cc(C#N)ccc2COc2cccc-3n2)nc2ccc(C(=O)O)cc21 [Example 11, 2-((5^4-cyano-3,9-dioxa-2(2,6)-pyridina-1(1,3),5(1,2)-dibenzenacyclononaphane-1^4-yl)methyl)-1-((1-ethyl-1H-imidazol-5-yl)methyl)-1H-benzo[d]imidazole-6-carboxylic acid]	35	92	194	81
N#Cc1ccc2c(c1)OCCOc1cc(c(F)cc1Cc1nc3ccc(C(=O)O)cc3n1C[C@@H]1CCO1)-c1cccc(n1)OC2 [Example 13, (S)-2-((5^4-Cyano-1^6-fluoro-3,6,9-trioxa-2(2,6)-pyridina-1(1,3),5(1,2)-dibenzenacyclononaphane-1^4-yl)methyl)-1-(oxetan-2-ylmethyl)-1H-benzo[d]imidazole-6-carboxylic acid]	120	88.5	542	74.7
N#Cc1ccc2c(c1)COCc1cc(c(F)cc1Cc1nc3ccc(C(=O)O)cc3n1C[C@@H]1CCO1)-c1cccc(n1)OC2 [Example 14, (S)-2-((5^4-Cyano-1^6-fluoro-3,7-dioxa-2(2,6)-pyridina-1(1,3),5(1,2)-dibenzenacyclooctaphane-1^4-yl)methyl)-1-(oxetan-2-ylmethyl)-1H-benzo[d]imidazole-6-carboxylic acid]	72.3	109	228	82.5
O=C(O)c1ccc2nc(Cc3ccc4cc3OCCCc3cc(Br)ccc3COc3cccc-4n3)n(C[C@@H]3CCO3)c2c1 [Example 18, (S)-2-((5^4-Bromo-3,9-dioxa-2(2,6)-pyridina-1(1,3),5(1,2)-dibenzenacyclononaphane-1^4-yl)methyl)-1-(oxetan-2-ylmethyl)-1H-benzo[d]imidazole-6-carboxylic acid]	50.3	115	169	94.9
N#Cc1ccc2c(c1)CCOCc1cc(ccc1Cc1nc3ccc(C(=O)O)cc3n1C[C@@H]1CCO1)-c1cccc(n1)OC2 [Example 19, (S)-2-((5^4-Cyano-3,8-dioxa-2(2,6)-pyridina-1(1,3),5(1,2)-dibenzenacyclononaphane-1^4-yl)methyl)-1-(oxetan-2-ylmethyl)-1H-benzo[d]imidazole-6-carboxylic acid]	55.4	103	197	83
N#Cc1ccc2c(c1)CCOc1cc(c(F)cc1Cc1nc3ccc(C(=O)O)cc3n1C[C@@H]1CCO1)-c1cccc(n1)OC2 [Example 20, (S)-2-((5^4-Cyano-1^6-fluoro-3,8-dioxa-2(2,6)-pyridina-1(1,3),5(1,2)-dibenzenacyclooctaphane-1^4-yl)methyl)-1-(oxetan-2-ylmethyl)-1H-benzo[d]imidazole-6-carboxylic acid]	58	105	226	89.9

More lines, now with the values ahead:

EC50 (human GLP-1R [1]) [nM]	Emax (human GLP-1R [1]) [%]	EC50 (human GLP-1R [2]) [nM]	Emax (human GLP-1R [2]) [%]	Compound
6.58	109	22.3	81.6	COc1cc(C(=O)O)cc2c1nc(Cc1ccc3cc1OCCCc1cc(C#N)ccc1COc1cccc-3n1)n2C[C@@H]1CCO1 [Example 5, (S)-2-((5^4-Cyano-3,9-dioxa-2(2,6)-pyridina-1(1,3),5(1,2)-dibenzenacyclononaphane-1^4-yl)methyl)-4-methoxy-1-(oxetan-2-ylmethyl)-1H-benzo[d]imidazole-6-carboxylic acid]
1.8	118	5.44	83.1	COc1cc(C(=O)O)cc2c1nc(Cc1cc(C)c3cc1OCCCc1cc(C#N)ccc1COc1cccc-3n1)n2C[C@@H]1CCO1 [Example 9, (S)-2-((5^4-Cyano-16-methyl-3,9-dioxa-2(2,6)-pyridina-1(1,3),5(1,2)-dibenzenacyclononaphane-1^4-yl)methyl)-4-methoxy-1-(oxetan-2-ylmethyl)-1H-benzo[d]imidazole-6-carboxylic acid]
6.74	105	26.4	82.8	COc1cc(C(=O)O)cc2c1nc(Cc1cc(C)c3cc1OCCCc1cc(C#N)ccc1COc1cccc-3c1)n2C[C@@H]1CCO1 [Example 15, (S)-2-((5^4-Cyano-1^6-methyl-3,9-dioxa-1,2(1,3),5(1,2)-tribenzenacyclononaphane-1^4-yl)methyl)-4-methoxy-1-(oxetan-2-ylmethyl)-1H-benzo[d]imidazole-6-carboxylic acid]
1.95	125	4.02	86.7	COc1cc(C(=O)O)cc2c1nc(Cc1cc(C)c3cc1OCCCc1cc(C(F)(F)F)ccc1COc1cccc-3n1)n2C[C@@H]1CCO1 [Example 16, (S)-4-Methoxy-2-((1^6-methyl-5^4-(trifluoromethyl)-3,9-dioxa-2(2,6)-pyridina-1(1,3),5(1,2)-dibenzenacyclononaphane-1^4-yl)methyl)-1-(oxetan-2-ylmethyl)-1H-benzo[d]imidazole-6-carboxylic acid]
10.5	121	38.4	84.6	COc1cc(C(=O)O)cc2c1nc(Cc1cc(F)c3cc1COCc1cc(C#N)ccc1COc1cccc-3n1)n2C[C@@H]1CCO1 [Example 17, (S)-2-((5^4-cyano-1^6-fluoro-3,7-dioxa-2(2,6)-pyridina-1(1,3),5(1,2)-dibenzenacyclooctaphane-1^4-yl)methyl)-4-methoxy-1-(oxetan-2-ylmethyl)-1H-benzo[d]imidazole-6-carboxylic acid]
